Like-named read-outs stand apart in the source and are kept apart here. Non-standard residues stand in square brackets, D forms with d. Residues, ends and D or L forms follow the SMILES beside them. No end group written: not given here. *: point of attachment. dPhe(4-Cl) = N[C@H](Cc1ccc(Cl)cc1)C(=O)O; d2Nal = N[C@H](Cc1ccc2ccccc2c1)C(=O)O; Lys(iPr) = CC(C)NCCCC[C@H](N)C(=O)O; d3Pal = N[C@H](Cc1cccnc1)C(=O)O; Nicotinoyl = O=C(c1cccnc1)*; Picolinoyl = O=C(c1ccccn1)*
Tests used:
[1] = test system: rat mast cells; test: in vitro histamine release test; assay type: cell-based; conditions: for In Vitro Histamine Release ED50: rat mast cells, ± SEM
Protocol: The antiovulatory activity, AOA, in rats was determined as described by Humphries et al. (12). Antiovulation assays were performed by counting, on estrus, the number of ova shed by 4-day cycling rats after a single sc injection of the LH-RH analogue in corn oil was administered between 12 and 12:30 p.m. on […]. The control rats received 0.3 mL of the vehicle. The wheal test was performed by intradermally injecting 10 ug of peptide in 100 ul of saline into anaesthesized rats, measuring the ideally circular wheal response and calculating the area. The in vitro histamine release test was done as described by Karten et al. (4). A suspension of rat mast cells was added to increasing concentrations of peptide and the mixture was incubated for a few minutes followed by centrifugation to collect the histamine in the supernatant. A PIPES (piperazine-N,N'-bis[2-ethanesulfonic acid]) medium buffered at pH 7.4 containing NaCl 119 mM, KCl 5 mM, PIPES 25 mM, NaOH 40 mM, glucose 5.6 mM, CaCl2 1 mM, and 0.1% bovine serum albumin was used. This was designated as PIPES AC. Peptides were dissolved in double distilled H2 O at a concentration of 2 mg/ml and stored at -20° C. They were thawed just prior to testing, diluted in PIPES AC and prewarmed for five minutes at 37° C. Peptides studied were stable to heating at 56° C. for two hours, and to freezing and thawing.
Peritoneal cells were collected from male Sprague-Dawley rats weighing 200 to 250 gm and purchased from Harlan (Madison, Wis.). After euthanasia by CO2, the peritoneal cavity was washed with 50 ml PIPES AC medium containing 20 units of heparin. Following centrifugation at 200×g for eight minutes at 4° C., cells were washed again and finally resuspended to a concentration of 8 to 24×10^5 total leukocytes/ml in PIPES AC. This suspension contained approximately 5-10% mast cells. Washed cells were used immediately after collection and were prewarmed for five minutes at 37° C. prior to pipetting 0.25 ml aliquots into 12×75 mm polystyrene tubes containing 0.25 ml of diluted peptide. Mixtures were incubated for 15 minutes at 37° C. and the reaction stopped by centrifugation at 400×g for 15 minutes at 4° C. The cell supernatants were assayed for histamine content by the automated fluorometric assay procedure. See, Siraganian, R. P., "An automated continuous flow system for the extraction and fluorometric analysis of histamine." Anal. Biochem. 57:383 (1974); and Siraganian, R. P. and Hook, W. A., "Histamine release and assay methods for the study of human allergy," In Manual of Clinical Immunology, 3rd ed., N. R. Rose, H. Friedman, and J. L. Fahey (Eds.), Amer. Soc. for Microbiology, Washington (1986) p. 808.

[2] = test system: dispersed pituitary cell culture; test: dispersed pituitary cell culture assay; assay type: cell-based
[3] = test system: rats; conditions: reported in ref. 16, cited from earlier work
[4] = test system: 26 days old female rats; test: oral activity: serum LH and FSH after agonist [D-Qal^6]-LHRH; assay type: in vivo, rat; conditions: for LH: 2 hours before 10 ng agonist; for FSH / Serum LH: -2 hr, agonist 10 ng sc, +2 hours
Protocol: For the determination of duration of action, the antagonist was administered s.c. or orally to 26 days old female rats at a specific time before administration of the agonist, [D-Qal^6 ]-LHRH. The serum levels of rat luteinizing hormone (LH) and rat follicle stimulating hormone (FSH) were then measured 2 hours after the agonist administration by RIA. The oral administration was done through force-feeding with feeding tubes.

[5] = test system: anaesthesized rats; conditions: From Reference 1; cited from earlier work
[6] = test system: anaesthesized rats; test: wheal test, intradermal injection; assay type: in vivo, rat; design: Wheal (wheal response): unit not given here; conditions: for Wheal (wheal response): Table XIV and text, unit not given
Summary of the method: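 Anaesthetized rats given intradermal injection of 10 ug peptide in 100 ul saline; area of the wheal calculated from its diameter.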

With `CC(=O)N[C@H](Cc1ccc2ccccc2c1)C(=O)N[C@H](Cc1ccc(Cl)cc1)C(=O)N[C@H](Cc1cccnc1)C(=O)N[C@@H](CO)C(=O)N[C@@H](CCCCNC(=O)c1ccccn1)C(=O)N[C@H](CCCCNC(=O)c1ccccn1)C(=O)N[C@@H](CC(C)C)C(=O)N[C@@H](CCCCNC(C)C)C(=O)N1CCC[C@H]1C(=O)N[C@H](C)C(N)=O` (Ac-[d2Nal][dPhe(4-Cl)][d3Pal]SK(Picolinoyl)[dK](Picolinoyl)L[Lys(iPr)]P[dA]-NH2) the “histamine release (in words)” value [1] was “released no more histamine than do "super agonists" of LHRH”.
With “[N-Ac-D-2-Nal^1,D-4-F-Phe^2,D-Trp^3,D-Arg^6 ]-LHRH” the “In Vitro Histamine Release ED50” value [1] was 0.17 µg/mL, the “In Vitro Histamine Release ED50” value ([1]; listed as [N-Ac-D-2-Nal^1,D-pFPhe^2,D-Trp^3,D-Arg^6 ]-LHRH) was “about 0.17 μg/ml” and the “In Vitro Histamine Release ED50” value ([1]; listed as standard compound) was 0.1 to 0.2 µg/mL. The “ED 50 (histamine release), starred test series” value ([1]; test series in which the standard compound had ED 50 0.46 instead of the usual 0.1-0.2) was 0.46 µg/mL.
For “luteinizing hormone releasing hormone (QHWSYGLRPG; ends and bridges not checked; UniProt P01148 24-33, looked up) [LHRH, natural hormone used as agonist in the pituitary cell culture assay]”, the FSH ([2]; LHRH 0.1 nM alone) was 221 ± 18 ng/mL, the RLH ([2]; LHRH 0.1 nM alone) was 40 ± 7 ng/mL and the FSH ([2]; LHRH 0.3 nM alone) was 562 ± 48 ng/mL. It also gave an RLH ([2]; LHRH 0.3 nM alone) of 80 ± 1 ng/mL, an FSH ([2]; LHRH 1.0 nM alone) of 802 ng/mL and an RLH ([2]; LHRH 1.0 nM alone) of 118 ng/mL. It also gave an FSH ([2]; LHRH 3.0 nM alone) of 646 ± 123 ng/mL, an RLH ([2]; LHRH 3.0 nM alone) of 150 ± 1 ng/mL and an FSH ([2]; LHRH 10.0 nM alone) of 602 ± 26 ng/mL. It also gave an RLH ([2]; LHRH 10.0 nM alone) of 141 ± 4 ng/mL, an FSH ([2]; LHRH 30.0 nM alone) of 557 ± 15 ng/mL and an RLH ([2]; LHRH 30.0 nM alone) of 152 ± 7 ng/mL.
In the case of “[N-Ac-D-pClPhe^1,2,D-Trp^3,D-Arg^6,D-Ala^10 ]-LHRH [VIII-25]”, the rats ovulated/total rats ([3]; oral dose 500 ug) is given as 9/11, the rats ovulated/total rats ([3]; oral dose 1000 ug) is given as 4/11 and the rats ovulated/total rats ([3]; oral dose 2000 ug) is given as 0/11. For the same compound, the LH ([4]; oral 30 ug) was 39 ± 6 ng/mL, the LH ([4]; oral 100 ug) was 26 ± 7 ng/mL and the FSH ([4]; oral in water 10 μg) was 1794 ± 329 ng/mL. For the same compound, the “Serum LH” value ([4]; oral in water 10 μg) was 59 ± 11 ng/mL, the FSH ([4]; oral in water 30 μg) was 1470 ± 190 ng/mL and the “Serum LH” value ([4]; oral in water 30 μg) was 39 ± 6 ng/mL. For the same compound, the FSH ([4]; oral in water 100 μg) was 1161 ± 277 ng/mL and the “Serum LH” value ([4]; oral in water 100 μg) was 26 ± 7 ng/mL.
For `CC(=O)N[C@H](Cc1ccc2ccccc2c1)C(=O)N[C@H](Cc1ccc(Cl)cc1)C(=O)N[C@H](Cc1cccnc1)C(=O)N[C@@H](CO)C(=O)N[C@@H](CCCCNC(=O)c1ccccn1)C(=O)N[C@H](CCCCNC(=O)c1ccccn1)C(=O)N[C@@H](CC(C)C)C(=O)N[C@@H](CCCCNC(C)C)C(=O)N1CCC[C@H]1C(=O)N[C@H](C)C(N)=O` [IBR 25147, [N-Ac-D-2-Nal^1,D-pClPhe^2,D-3-Pal^3,PicLys^5,D-PicLys^6, ILys^8,D-Ala^10]-LHRH] (Ac-[d2Nal][dPhe(4-Cl)][d3Pal]SK(Picolinoyl)[dK](Picolinoyl)L[Lys(iPr)]P[dA]-NH2), the “Wheal Area” value [5] is listed as 123 ± 0 mm^2 /10 μg and the “Wheal (wheal response)” value [6] is listed as 123.0.
For `CC(=O)N[C@H](Cc1ccc2ccccc2c1)C(=O)N[C@H](Cc1ccc(Cl)cc1)C(=O)N[C@H](Cc1cccnc1)C(=O)N[C@@H](CO)C(=O)N[C@@H](CCCCNC(=O)c1cccnc1)C(=O)N[C@H](CCCCNC(=O)c1cccnc1)C(=O)N[C@@H](CC(C)C)C(=O)N[C@@H](CCCCNC(C)C)C(=O)N1CCC[C@H]1C(=O)N[C@H](C)C(N)=O` [Antide, [N-Ac-D-2-Nal^1, D-pClPhe^2, D-3-Pal^3, NicLys^5, D-NicLys^6, ILys^8, D-Ala^10]-LHRH] (Ac-[d2Nal][dPhe(4-Cl)][d3Pal]SK(Nicotinoyl)[dK](Nicotinoyl)L[Lys(iPr)]P[dA]-NH2), the “histamine release (in words)” value [1] was “released remarkably little histamine”, the Wheal ([6]; Table I, 10 ug peptide intradermally) was 132.7 mm^2 /10 and the “Wheal (wheal response)” value [6] was 132.7.
